# In patent publication US7479561B2, “4-(2,4-dichloro-5-methoxyphenyl)amino-6-methoxy-7-{[5-substituted-amino)methyl]-3-furyl}-3-quinolinecarbonitriles as kinase inhibitors” (Wyeth, priority 2004, dated 2009):
# “And” between values parts separate entries of the source, which are not always exact repeats. Identical values can stand only once.
# Target: T1, Recombinant human Src enzyme (Homo sapiens, UniProt P12931)
# T1 construct: purchased PanVera P3044
# Assay: Src Kinase Assay (LANCE FRET)
# Assay type: biochemical
# Conditions: 100 μM ATP; multiple entries = tested multiple times; read-out: Src enzyme IC50
# Experimental: Recombinant human Src enzyme was obtained from PanVera (P3044). […] Homogeneous fluorescence resonance energy transfer kinase assays were performed using the europium/APC detection format (LANCE, Perkin Elmer). Src enzyme (10 ng) was mixed with biotinylated peptide (final concentration 2 μM), 50 mM Hepes (pH 7.5), 10 mM MgCl2, 20 ug/ml BSA, 0.001% Brij-35 (Sigma), 100 μM ATP, 1% DMSO. The kinase reaction was incubated for 70 min at 37° C. The reaction was stopped with EDTA at a final concentration of 30 mM EDTA/25 mM Hepes (pH 7.5)/10 μg/ml BSA. The mixture was combined with Eu-labeled anti-phosphotyrosine antibody PT66 (Perkin Elmer, AD0068) and Streptavidin Surelight-APC (Perkin Elmer, CR130-100) in 50 mM Hepes (pH 7.5)/20 μg/ml BSA, and incubated for 30 min according to manufacturer's specifications. […] Multiple entries for a given compound indicate that it was tested multiple times.
# T1 sequence (P12931 whole entry): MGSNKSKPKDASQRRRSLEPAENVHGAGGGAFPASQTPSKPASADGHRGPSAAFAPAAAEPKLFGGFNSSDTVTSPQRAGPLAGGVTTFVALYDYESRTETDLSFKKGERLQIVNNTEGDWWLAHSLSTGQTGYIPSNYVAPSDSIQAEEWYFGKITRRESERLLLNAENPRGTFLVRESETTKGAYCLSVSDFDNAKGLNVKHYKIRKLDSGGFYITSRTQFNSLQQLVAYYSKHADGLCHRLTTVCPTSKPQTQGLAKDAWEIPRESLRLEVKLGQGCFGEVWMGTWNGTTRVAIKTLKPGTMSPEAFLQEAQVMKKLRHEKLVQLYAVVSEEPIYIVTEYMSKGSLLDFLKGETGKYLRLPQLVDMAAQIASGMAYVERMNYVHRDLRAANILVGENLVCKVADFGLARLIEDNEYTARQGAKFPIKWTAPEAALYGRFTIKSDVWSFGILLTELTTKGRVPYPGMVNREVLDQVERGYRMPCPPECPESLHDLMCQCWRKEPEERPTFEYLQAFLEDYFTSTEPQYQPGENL
row,IC50,Compound
1,0.8 nM and 0.9 nM,"COc1cc(Nc2c(C#N)cnc3cc(-c4coc(CN5CCCC5)c4)c(OC)cc23)c(Cl)cc1Cl [Example 6, 4-[(2,4-dichloro-5-methoxyphenyl)amino]-6-methoxy-7-[5-(pyrrolidin-1-ylmethyl)-3-furyl]quinoline-3-carbonitrile]"
2,0.9 nM and 0.8 nM,"CCN(CC)Cc1cc(-c2cc3ncc(C#N)c(Nc4cc(OC)c(Cl)cc4Cl)c3cc2OC)co1 [Example 8, 4-[(2,4-dichloro-5-methoxyphenyl)amino]-7-{5-[(diethylamino)methyl]-3-furyl}-6-methoxyquinoline-3-carbonitrile]"
3,0.6 nM and 0.7 nM,"CCN1CCN(Cc2cc(-c3cc4ncc(C#N)c(Nc5cc(OC)c(Cl)cc5Cl)c4cc3OC)co2)CC1 [Example 9, 4-[(2,4-dichloro-5-methoxyphenyl)amino]-7-{5-[(4-ethylpiperazin-1-yl)methyl]-3-furyl}-6-methoxyquinoline-3-carbonitrile]"
4,0.5 nM,"COc1cc(Nc2c(C#N)cnc3cc(-c4coc(CN5CCN(C6CCN(C)CC6)CC5)c4)c(OC)cc23)c(Cl)cc1Cl [Example 10, 4-[(2,4-dichloro-5-methoxyphenyl)amino]-6-methoxy-7-(5-{[4-(1-methylpiperidin-4-yl)piperazin-1-yl]methyl}-3-furyl)quinoline-3-carbonitrile]"
5,1.1 nM and 1 nM,"COc1cc(Nc2c(C#N)cnc3cc(-c4coc(CN5CCC(N6CCCC6)CC5)c4)c(OC)cc23)c(Cl)cc1Cl [Example 11, 4-[(2,4-dichloro-5-methoxyphenyl)amino]-6-methoxy-7-{5-[(4-pyrrolidin-1-ylpiperidin-1-yl)methyl]-3-furyl}quinoline-3-carbonitrile]"
6,2.5 nM and 2.1 nM,"CCCCN1CCN(Cc2cc(-c3cc4ncc(C#N)c(Nc5cc(OC)c(Cl)cc5Cl)c4cc3OC)co2)CC1 [Example 12, 7-{5-[(4-butylpiperazin-1-yl)methyl]-3-furyl}-4-[(2,4-dichloro-5-methoxyphenyl)amino]-6-methoxyquinoline-3-carbonitrile]"
7,1 nM,"COc1cc(Nc2c(C#N)cnc3cc(-c4coc(CN5CCN(CCN6CCOCC6)CC5)c4)c(OC)cc23)c(Cl)cc1Cl [Example 13, 4-[(2,4-dichloro-5-methoxyphenyl)amino]-6-methoxy-7-(5-{[4-(2-morpholin-4-ylethyl)piperazin-1-yl]methyl}-3-furyl)quinoline-3-carbonitrile]"
8,33.7 nM and 56.2 nM,"COc1cc(Nc2c(C#N)cnc3cc(-c4coc(CN5CCN(Cc6ccccc6)CC5)c4)c(OC)cc23)c(Cl)cc1Cl [Example 14, 7-{5-[(4-benzylpiperazin-1-yl)methyl]-3-furyl}-4-[(2,4-dichloro-5-methoxyphenyl)amino]-6-methoxyquinoline-3-carbonitrile]"
9,18.3 nM and 13.3 nM,"COc1cc(Nc2c(C#N)cnc3cc(-c4coc(CN5CCN(CCc6ccccc6)CC5)c4)c(OC)cc23)c(Cl)cc1Cl [Example 15, 4-[(2,4-dichloro-5-methoxyphenyl)amino]-6-methoxy-7-(5-{[4-(2-phenylethyl)piperazin-1-yl]methyl}-3-furyl)quinoline-3-carbonitrile]"
10,10.2 nM and 6.5 nM,"CCCN(CCC)Cc1cc(-c2cc3ncc(C#N)c(Nc4cc(OC)c(Cl)cc4Cl)c3cc2OC)co1 [Example 16, 4-[(2,4-dichloro-5-methoxyphenyl)amino]-7-{5-[(dipropylamino)methyl]-3-furyl]-6-methoxyquinoline-3-carbonitrile]"
11,2.4 nM and 2.1 nM,"COc1cc(Nc2c(C#N)cnc3cc(-c4coc(CN5CCS(=O)(=O)CC5)c4)c(OC)cc23)c(Cl)cc1Cl [Example 17, 4-[(2,4-dichloro-5-methoxyphenyl)amino]-7-{5-[(1,1-dioxidothiomorpholin-4-yl)methyl]-3-furyl}-6-methoxyquinoline-3-carbonitrile]"
12,1.5 nM and 2.4 nM,"COc1cc(Nc2c(C#N)cnc3cc(-c4coc(CN5CC[S+]([O-])CC5)c4)c(OC)cc23)c(Cl)cc1Cl [Example 18, 4-[(2,4-dichloro-5-methoxyphenyl)amino]-6-methoxy-7-{5-[(1-oxidothiomorpholin-4-yl)methyl]-3-furyl}quinoline-3-carbonitrile]"
13,3.6 nM and 2.8 nM,"COc1cc(Nc2c(C#N)cnc3cc(-c4coc(CN5CCN(C6CCCCC6)CC5)c4)c(OC)cc23)c(Cl)cc1Cl [Example 19, 7-{5-[(4-cyclohexylpiperazin-1-yl)methyl]-3-furyl}-4-[(2,4-dichloro-5-methoxyphenyl)amino]-6-methoxyquinoline-3-carbonitrile]"
14,10 nM and 11.7 nM,"COc1ccc(N2CCN(Cc3cc(-c4cc5ncc(C#N)c(Nc6cc(OC)c(Cl)cc6Cl)c5cc4OC)co3)CC2)cc1 [Example 20, 4-[(2,4-dichloro-5-methoxyphenyl)amino]-6-methoxy-7-(5-{[4-(4-methoxyphenyl)piperazin-1-yl]methyl}-3-furyl)quinoline-3-carbonitrile]"
15,2.2 nM and 1.9 nM,"COc1cc(Nc2c(C#N)cnc3cc(-c4coc(CN5CCN(c6ccncc6)CC5)c4)c(OC)cc23)c(Cl)cc1Cl [Example 21, 4-[(2,4-dichloro-5-methoxyphenyl)amino]-6-methoxy-7-[5-[(4-pyridin-4-ylpiperazin-1-yl)methyl]-3-furyl}quinoline-3-carbonitrile]"
16,12.8 nM and 14.3 nM,"COc1cc(Nc2c(C#N)cnc3cc(-c4coc(CN5CCN(c6ccc(C)cc6)CC5)c4)c(OC)cc23)c(Cl)cc1Cl [Example 22, 4-[(2,4-dichloro-5-methoxyphenyl)amino]-6-methoxy-7-(5-{[4-(4-methylphenyl)piperazin-1-yl]methyl}-3-furyl)quinoline-3-carbonitrile]"
17,18.9 nM and 17 nM,"COc1cc(Nc2c(C#N)cnc3cc(-c4coc(CN5CCN(c6ccc(Cl)cc6)CC5)c4)c(OC)cc23)c(Cl)cc1Cl [Example 23, 7-(5-{[4-(4-chlorophenyl)piperazin-1-yl]methyl}-3-furyl)-4-[(2,4-dichloro-5-methoxyphenyl)amino]-6-methoxyquinoline-3-carbonitrile]"
18,6 nM and 5.6 nM,"COc1cc(Nc2c(C#N)cnc3cc(-c4coc(CN5CCN(c6ccc(O)cc6)CC5)c4)c(OC)cc23)c(Cl)cc1Cl [Example 24, 4-[(2,4-dichloro-5-methoxyphenyl)amino]-7-(5-{[4-(4-hydroxyphenyl)piperazin-1-yl]methyl}-3-furyl)-6-methoxyquinoline-3-carbonitrile]"
19,14.1 nM and 14.4 nM,"COc1cc(Nc2c(C#N)cnc3cc(-c4coc(CN5CCN(c6ccc(C(F)(F)F)cc6)CC5)c4)c(OC)cc23)c(Cl)cc1Cl [Example 25, 4-[(2,4-dichloro-5-methoxyphenyl)amino]-6-methoxy-7-[5-({4-[4-(trifluoromethyl)phenyl]piperazin-1-yl}methyl)-3-furyl]quinoline-3-carbonitrile]"
20,9.1 nM and 7.8 nM,"COc1cc(Nc2c(C#N)cnc3cc(-c4coc(CN5CCSCC5)c4)c(OC)cc23)c(Cl)cc1Cl [Example 26, 4-[(2,4-dichloro-5-methoxyphenyl)amino]-6-methoxy-7-[5-(thiomorpholin-4-ylmethyl)-3-furyl]quinoline-3-carbonitrile]"
21,3.2 nM and 2.5 nM,"COc1cc(Nc2c(C#N)cnc3cc(-c4coc(CN(C)CCN(C)C)c4)c(OC)cc23)c(Cl)cc1Cl [Example 27, 4-[(2,4-dichloro-5-methoxyphenyl)amino]-7-(5-{[[2-(dimethylamino)ethyl](methyl)amino]methyl}-3-furyl)-6-methoxyquinoline-3-carbonitrile]"
22,1 nM and 0.7 nM,"COc1cc(Nc2c(C#N)cnc3cc(-c4coc(CN5CCN(C(C)C)CC5)c4)c(OC)cc23)c(Cl)cc1Cl [Example 28, 4-[(2,4-dichloro-5-methoxyphenyl)amino]-7-{5-[(4-isopropylpiperazin-1-yl)methyl]-3-furyl}-6-methoxyquinoline-3-carbonitrile]"
23,1.3 nM and 1 nM,"COc1cc(Nc2c(C#N)cnc3cc(-c4coc(CN5CCCN(C)CC5)c4)c(OC)cc23)c(Cl)cc1Cl [Example 29, 4-[(2,4-dichloro-5-methoxyphenyl)amino]-6-methoxy-7-{5-[(4-methyl-1,4-diazepan-1-yl)methyl]-3-furyl}quinoline-3-carbonitrile]"
24,1.9 nM and 1.7 nM,"COCCN1CCN(Cc2cc(-c3cc4ncc(C#N)c(Nc5cc(OC)c(Cl)cc5Cl)c4cc3OC)co2)CC1 [Example 30, 4-[(2,4-dichloro-5-methoxyphenyl)amino]-6-methoxy-7-(5-{[4-(2-methoxyethyl)piperazin-1-yl]methyl}-3-furyl)quinoline-3-carbonitrile]"
25,1.9 nM and 1.8 nM,"COc1cc(Nc2c(C#N)cnc3cc(-c4coc(CN5CCN(CCO)CC5)c4)c(OC)cc23)c(Cl)cc1Cl [Example 31, 4-[(2,4-dichloro-5-methoxyphenyl)amino]-7-(5-{[4-(2-hydroxyethyl)piperazin-1-yl]methyl}-3-furyl)-6-methoxyquinoline-3-carbonitrile]"
26,2.9 nM and 2.6 nM,"COCCN(C)Cc1cc(-c2cc3ncc(C#N)c(Nc4cc(OC)c(Cl)cc4Cl)c3cc2OC)co1 [Example 32, 4-[(2,4-dichloro-5-methoxyphenyl)amino]-6-methoxy-7-(5-{[(2-methoxyethyl)(methyl)amino]methyl}-3-furyl)quinoline-3-carbonitrile]"

# Same assay, conditions: Src enzyme IC50, 100 μM ATP; multiple entries = tested multiple times
row,Compound,IC50 [nM]
1,"COc1cc(Nc2c(C#N)cnc3cc(-c4coc(CN5CCCCC5)c4)c(OC)cc23)c(Cl)cc1Cl [Example 7, 4-[(2,4-dichloro-5-methoxyphenyl)amino]-6-methoxy-7-[5-(piperidin-1-ylmethyl)-3-furyl]quinoline-3-carbonitrile]",0.7
